In patent US20220152228A1, “COMPOSITIONS AND METHODS FOR RADIOTHERAPY USING CHELATED RADIOTHERAPEUTIC AGENTS AND NON-TARGET TISSUE BLOCKADE” (Washington University, priority 2019, published 2022):
Read-outs that look alike come from different tables or passages of the source.

Columns and labels:
[1] = test system: ^223Ra transport through caco-2 monolayers; test: Ion-channel ligand library screen for 223Ra flux through caco-2 monolayers; type: cell-based; details: 20 μM, BL to AP, normalized to treatment-free flux
Protocol: Caco-2BBe1 (brush border expressing clone of parent Caco-2 line) monolayers, modelling colon tissue, were used. Caco-2 monolayers were utilized for ion-channel ligand library screening (52 compounds) testing epithelial ion-transport activation or blocking of radioactive transfer (see e.g., FIG. 15A). Caco-2 cells were seeded 15 K cells/well in 96 trans-well filter plate and assayed 10 days post-seeding. […] The screening material was sampled at 20 μM per BL well (n=3/molecules).
The monolayers integrity was monitored using a lucifer yellow permeability assay. The fluorescent tracer was loaded in the AP compartment, and fluorescence permeability was read in the BL vial. % Lucifer Yellow Passage (LYp %) was calculated as the percentile ratio of relative Fluorescence Units-535 nm (FU) of the assayed BL over FU of complete transfer in BL well.
Radioactive reading was accomplished sampling AP compartments on Luma plates and reading the dried luminescence using Topcount scintillation counter. […] Averaged drug-assayed measurements (n=3) were normalized to treatment-free flux.

[2] = 223Ra organ distribution in mice pre-treated with ion-channel modulator; type: in vivo, C57/Bl6 mice
Protocol: Healthy male C57/Bl6 mice were randomized received a combination treatment with intraperitoneal injection of Amiloride (inhibitor, red) or NS-1619 (activator, green) or saline (control, grey) followed by a clinical dose of ^223RaCl2 1 h post-drug administration. Radioactive organ distribution was then measured at 15 min, 1 h and 4 h post ^223Ra treatment. […] Comparing bone uptake, as early as 15 min, osseous absorption is was half for the NS-1619-treated group as compared to the amiloride or the control group.
Male C57Bl/6 aged 10 weeks (n=6 per treated group) were administered intraperitoneally Amiloride (12.5 mg/kg-150 uL 2% v/v DMSO) or NS-1619 (1 mg/kg-150 uL 2% v/v DMSO) or saline 1 h prior ^223RaCl2 i.v. administration (3.7 KBq/100 uL buffer). Animals were kept awake between each injection. 15 min; 1 h and 4 h post ^223Ra administration: blood; spleen; kidney; stomach; duodenum; jejunum; ileum; cecum; colon; muscle; fat and bone tibia were harvested, weighed and gamma counted. Gamma counting was conducting utilizing a Perkin Elmer Wizard2 counter with readings of energies set 150-350 KeV, with 10 min reading for each sample. Standard corresponding to 10% of injected activity were measured as well; allowing for the calculation of % Injected activity (% IA) normalized to tissue weight (% IA/g).

[3] = Protocol: The animals were maintained for 20 days with food and water and submitted to blood chemistry analysis (Abaxis Vscan 2) at day 1; 7 and 19 d post-treatment. Weight was monitored for each cohort over 20 days. At the end of the study (day 20 post-treatment), animals were sacrificed and whole limbs and kidneys were harvested for gamma counting and histopathological assessments, respectively.
Kidneys were collected 20 days post-treatment and the tissues were fixed in formalin for 72 h then transferred to saline. Tissues were processed by dehydration, paraffin embedding, and sectioning at 4 μm. Adjacent sections were stained with H&E, PAS and Masson's trichrome.

[4] = aqueous solution, physiological pH, Ba2+ complex; cited from earlier work
human serum proteins = details: for activity in early protein fractions (5-15 mL), affinity with proteins: 2 h of incubation in serum proteins
Remark: listed apart in the source
Protocol: Next, the stability of the complex to serum proteins was determined in vitro, simulating the complex biological environment encountered in vivo.
Alternatively, size exclusion chromatography (SEC) was utilized to identify each species in solution. […] Chelated activity % was measured integrating gamma counts of macropa peak (20 mL) over the sum counts of all collected fractions (0-47 mL) (see e.g., FIG. 3E).

[5] = test system: human duodenal enteroid monolayers
Protocol: An in vitro patient-derived organoid model of functional gut epithelium was developed by plating human duodenal enteroid monolayers on a permeable trans-well scaffold.
Intestinal cellular models—human duodenal enteroids and caco-2 monolayers—were grown on a trans-well polymeric filter plate divided in a lower and an upper incubation compartments modeling basolateral and apical side of the epithelium, respectively.
Human duodenal enteroids (see e.g., FIG. 13A) were reconstituted and grown from healthy patient-derived cellular crypts tissue samples. Both differentiated (DF) and undifferentiated (UDF) conditions were tested. DF monolayers were induced by removal of Wnt3A and R-spondin factors from the incubation media, as described previously.
DF or UDF duodenal enteroids were set and grown on 24-transwell plates for 2 weeks until cell confluency was reached, leading to closed monolayer membranes. […] Temperature-dependent transport 37° C. versus 4° C. was tested on UDF enteroids (see e.g., FIG. 13B). DF versus UDF enteroids phenotypes transfer were compared, selecting monolayers with similar range of TEER (1200<TEER<1800 D/m) (see e.g., FIG. 13C).

[6] = after administration to mice
Protocol: The whole gastrointestinal tracts from stomach to rectum were rapidly harvested and placed directly on plastic wraps set over autoradiographic phosphor screens for 90 min exposure in the dark. The autoradiographic prints were read on Cyclone Phosphor Imager (Packard), 300 DPI confocal laser stimulation; 16-bit ADC; utilizing FIJI processing with median filter. For FIJI readings of the autoradiographic files, data were converted to 32-bit format utilizing “square and scale n16” plug in. Radioactive signal intensity was translated into dynamic light units (see e.g., FIG. 12A). Signal intensity was plotted over the GI tract length from the stomach (start=0) to the cecum (˜200 mm) comparing various time points (see e.g., FIG. 12B). Results were comprised as well into profiles curves per organ region of interests including: stomach, cecum or the whole intestinal tract (see e.g., FIG. 12C).

colon and duodenum = details: mice, uptake in the intestine
Protocol: Animals were fasted and supplemented with Golytely (24 g/350 mL) 2 h prior injections and sacrificed 24 h post administration. Sections (1 cm) of each gastrointestinal region from the duodenum, jejunum, ileum to the colon were rapidly harvested. GI specimen were set onto previously partially solidified OCT gel block, then fully coated with OCT and flash frozen. Gastrointestinal transversal sectioning was conducted utilizing Leica microtome, 10 μm sections. Fresh frozen sections were collected on tape and stored at −20° C.
Gastrointestinal tissue sections were fixed immerging tapes in 10% paraformaldehyde (PFA) for 15 min followed by a washing with PBS 1×. Following fixation, tissues were mounted directly with DAPI and/or TRITC-Phalloidin mounting media under cover slip ready for imaging.
A second fixations was proceeded using 10% PFA and washed with deionized water. Tissues were then reacted using buffer reaction mixtures from Click-iT Plus TUNEL assay. Positive control were conducted, treated similarly with an additional DNAase treatment. Final counterstaining was conducted using Hoechst33342 (1:5000) before mounting taped tissue specimen under cover slip with 30% aqueous glycerol.
For γH2AX staining, tissues were fixed and submitted to blocking serum reagent, 1 h at room temperature. […]

[7] = test system: metastatic castration-resistant prostate cancer; details: mCRPC patients, vs. 11.9 months in control patients; cited from earlier work
[8] = human serum proteins, 37° C., 12 days

With `N=C(N)NC(=O)c1nc(Cl)c(N)nc1N` [Amiloride] the “effect on 223Ra transport through monolayers” value (“effect” for short) [1] was “inhibitor”, the “upper GI radioactive uptake (combined % IA of stomach, duodenum, jejunum)” value ([2]; 15 min p.i.) was “lower radioactive content” and the “upper GI radioactive uptake (combined % IA of stomach, duodenum, jejunum)” value ([2]; 4 h p.i.) was “No difference”. For the same molecule, the “223Ra sequestration in bone, times higher versus control or NS-1619” value ([2]; 4 h p.i., modulator i.p. 1 h before 223RaCl2) was “over 1.5 times”, the “area under the curve of bone uptake versus 223RaCl2 alone” value ([2]; combination with 223RaCl2, FIG. 17) was “significantly larger” and the “increase in 223Ra bone-homing (whole legs gamma-counted) versus Radium-223 alone” value ([3]; combination treatment, 20 days following treatment, P=0.0283) was 15%. The “blood chemistry profile, Radium versus Radium/Amiloride cohorts” value ([3]; day 1 to day 19 post-treatment) was “no profile difference”.

For `O=c1[nH]c2cc(C(F)(F)F)ccc2n1-c1cc(C(F)(F)F)ccc1O` [NS-1619], the “effect” value [1] was “activator”, the “upper GI radioactive uptake (combined % IA of stomach, duodenum, jejunum)” value ([2]; 1 h p.i.) was “significantly higher” and the “upper GI radioactive uptake (combined % IA of stomach, duodenum, jejunum)” value ([2]; 4 h p.i.) was “No difference”.

In the case of `O=C([O-])c1cccc(CN2CCOCCOCCN(Cc3cccc(C(=O)[O-])n3)CCOCCOCC2)n1.[Ba+2]` [[(Ba)macropa]], the “stability constant (log K′ML,pH7.4)” value [4] is given as 10.74.

With `O=C([O-])c1cccc(CN2CCOCCOCCN(Cc3cccc(C(=O)[O-])n3)CCOCCOCC2)n1.[223Ra+2]` [[(^223Ra)macropa]] the “activity in early protein fractions (5-15 mL), affinity with proteins” value (human serum proteins) was “no registered activity in the early fractions”, the “223Ra retained (chelated activity) after serum protein challenge” value (human serum proteins; [8]) was greater than 90% and the “decomplexation after serum protein challenge” value (human serum proteins; [8]) was 10%. For the same molecule, the “fold lower bone uptake than free 223Ra” value (15 min and 24 h p.i., FIG. 4C legend) was 10-25 fold, the “fold lower bone uptake compared to 223RaCl2 in citrate” value (15 min p.i.) was 10 fold and the “fold lower bone uptake compared to 223RaCl2 in citrate” value (24 h p.i.) was 20 fold. The bone uptake (24 h p.i., macropa study) was 1.6±0.2 % IA/g, the excretion route (animal models, compared to bare ion (Xofigo)) was “quantitatively excreted via renal filtration” and the “accumulation in the spleen and the gut” value (compared with 223RaCl2) was “prevented accumulation”. The “fold higher signal in equal volume of urine (bladder) than 223RaCl2 group” value (early time point (15 min)) was 300 fold and the “complex status in urine after excretion (SEC)” value (urine samples of chelator-administered group) was “intact”.

In the case of `[Cl][223Ra][Cl]` [^223RaCl2, Radium-223 Dichloride], the “223Ra transport, differentiated versus undifferentiated enteroids” value ([5]; basolateral to lumen compartment, P<0.05) is reported as “superior capacity to transport”, the “transport of radioactivity, 37° C. versus 4° C.” value ([5]; undifferentiated enteroids, basolateral to apical) is reported as “temperature-dependent active transport” and the “activity in early protein fractions (5-15 mL), affinity with proteins” value (human serum proteins) is reported as “no registered activity in the early fractions”. The bone uptake (24 h p.i., macropa study) was 22±1 % IA/g, the splenic uptake (24 h p.i., macropa-β-alanine study) was 5.52+/−2.3 % IA/g and the bone uptake (24 h p.i., macropa-β-alanine study, naive skeletally mature mice) was 9.7±1.66 % IA/g. For the same molecule, the “small bowel and stomach accumulation” value [6] was “observed within minutes”, the “apoptosis and DNA damage in cells of the colon and duodenum” value (colon and duodenum) was “increased cell apoptosis and DNA damage” and the median survival [7] was 14.9 months.

For `C/C=C(/C)C(=O)O[C@H]1C(C)=C2[C@H]([C@@H]1OC(=O)CCCCCCC)[C@@](C)(OC(C)=O)C[C@H](OC(=O)CCC)[C@@]1(O)[C@H]2OC(=O)[C@@]1(C)O` [thapsigargin], the “effect” value [1] was “does not increase transport”.
